Measured values taken from paper PMC9207808 (ACS Chemical Biology, 2022).
Entries after “also recorded” stand apart in the source; their conditions may differ. Residues, ends and D or L forms follow the SMILES beside them.

What was measured:
DocSTm [1] = assay: Differential scanning fluorimetry (thermal stabilisation of Doc); format: binding, S. Typhimurium; details: for melting temperature shift ΔTm: DSF, DocSTm 5 μM, analyte 50 μM, Tm with analyte minus Tm of free DocSTm (42.9 ± 0.9 °C), SYPRO Orange, 20 mM K2HPO4, 50 mM (NH4)2SO4, pH 8.0, triplicate; for Average Tm / Tm: DocSTm 5 µM + 50 µM binder; for Average Tm: average of 3 replicates
Method: Experiments were performed in a Mx3005P qPCR System (Agilent) collecting fluorescence data with a temperature ramp of 25 to 95 °C. Samples were prepared in a buffer containing 20 mM K2HPO4 and 50 mM (NH4)2SO4 at pH 8.0. The SYPRO Orange dye (Sigma-Aldrich, 5000× stock in DMSO) was used to monitor protein denaturation and was diluted to a final concentration of 3×. For binding experiments, the final concentration of Doc was 5 μM. Each condition was performed in triplicate (ESI section 4) and the melting curves were plotted using GraphPad Prism 5 (GraphPad Software, U.S.A.). The melting temperatures were obtained by fitting the sigmoidal section of the curves to a Boltzmann sigmoid function.

DocSTm [2] = assay: Surface plasmon resonance binding to immobilised Doc; parameters: species or system S. Typhimurium; details: for koff × 10^-6 / kon × 10^6: 1:1 kinetic fit, mean ± SD of at least 3 replicates; for kon × 10^6: single-cycle kinetics (multicycle for PhdSTm1-73); for Half-life of the complex: t1/2 = ln2 / koff
Method: Experiments were performed in a Biacore S200 (Cytiva) with a Series S sensor chip NTA (Cytiva). The data was analyzed using the Biacore Evaluation Software (Cytiva) and curves were plotted using GraphPad Prism 5 (GraphPad Software, U.S.A.). All experiments were performed at 22 °C with a running buffer containing 10 mM HEPES, 500 mM NaCl, 50 μM EDTA, and 0.005% (v/v) TWEEN 20 at pH 8.0. The surface was conditioned following the standard manufacturer’s guidelines and protein immobilization was performed with a 30–60 s pulse (flow rate of 5 μL/min) of Doc (150 nM) in running buffer. […] Surface regeneration was performed with a 1 min pulse of 0.5 M imidazole followed by a 1 min pulse of 0.35 M of EDTA at pH 8.0.
Binding to Doc was performed using a multicycle kinetics (MCK) setup for peptides 7, 10, and 14, while the remaining samples were tested using a single-cycle kinetics (SCK) setup. The surface was fully regenerated in between each analyte in both cases. In the MCK experiments, increasing concentrations of each analyte were injected with an 80 s pulse (30 μL/min) and dissociation times varied depending on the time required to fully dissociate the complex. The double-referenced sensorgrams (raw data subtracted from a blank injection and reference surface responses) were analyzed using a kinetic and/or a steady-state 1:1 binding model. In the SCK experiments, typically six concentrations of each analyte were sequentially injected with 80 s pulses (30 μL/min), and dissociation times varied depending on the time required to dissociate at least 5% of the complex. The double-referenced sensorgrams were fitted using a kinetic 1:1 binding model.
At least three independent replicates were measured for each analyte (ESI section 5). When a steady-state fit was applied, the reported Kd and its uncertainty correspond, respectively, to the average and standard deviations of the Kd obtained in each measurement. When a kinetic fit was applied, the reported rate constants (kon and koff) and their uncertainties correspond, respectively, to the average and standard deviations of the rate constants obtained in each measurement. In this case, reported Kd were calculated using the equation below, and the standard deviation of the rate constants was propagated. [drawing 1]

DocSTm [3] = assay: Dot blot phosphorylation assay (EF-Tu phosphorylation by Doc); format: biochemical, S. Typhimurium; details: α-pThr, DocSTm 1 μM, EF-TuSTm 3 μM, ATP 1 mM, inhibitor 10 μM to 5 nM (3-fold dilutions), 16 h at RT
Method: Samples were prepared to a final volume of 10 μL. […] Samples were incubated for 16 h at RT and subsequently spotted on a nitrocellulose membrane. Phosphorylated EF-Tu was detected by immunodecoration using a rabbit monoclonal antiphosphothreonine antibody (Abcam, ab218195) at 1:2000 dilution (1 h at 4 °C), followed by incubation with a goat antirabbit IgG (H+L) HRP conjugate antibody (Advansta) at 1:10 000 dilution (1 h at RT). Chemiluminescence was developed using the HRP Luminata kit (Merck, WBLUR0100) and captured by an ImageQuant LAS4000 Western blot imaging system (Cytiva).

[4] = SPR, kinetic fit, KD calculated from mean koff and kon, SD propagated, 22 °C, pH 8.0

| Structure (SMILES) | melting temperature shift ΔTm (DocSTm [1]) [°C] | Average Tm (DocSTm [1]) [°C] | Tm (DocSTm [1]; replicate 1) [°C] | Tm (DocSTm [1]; replicate 2) [°C] | Tm (DocSTm [1]; replicate 3) [°C] | Kd (DocSTm [2]; SPR kinetic fit, replicate 1) [nM] | Kd (DocSTm [2]; SPR kinetic fit, replicate 2) [nM] | Kd (DocSTm [2]; SPR kinetic fit, replicate 3) [nM] | koff × 10^-6 (DocSTm [2]; SPR, 22 °C, pH 8.0) | kon × 10^6 (DocSTm [2]; SPR, 22 °C, pH 8.0) | Kd (DocSTm [2]; [4]) [nM] | Half-life of the complex (DocSTm [2]) [min] | inhibition of EF-TuSTm phosphorylation by DocSTm (in words) (DocSTm [3]) | Kd (DocSTm [2]; SPR kinetic fit, replicate 4) [nM] |
| --- | --- | --- | --- | --- | --- | --- | --- | --- | --- | --- | --- | --- | --- | --- |
| CC[C@H](C)[C@H](NC(=O)[C@H](C)NC(=O)[C@H](C)NC(=O)[C@H](Cc1ccccc1)NC(=O)[C@H](CCC(=O)O)NC(=O)[C@H](CC(=O)O)NC(=O)[C@H](CC(=O)O)NC(=O)[C@H](CCSC)NC(=O)[C@H](Cc1c[nH]c2ccccc12)NC(C)=O)C(=O)N[C@@H](CCSC)C(=O)N[C@@H](C)C(=O)N[C@H](C(=O)N[C@@H](Cc1c[nH]cn1)C(=O)NCC(=O)N[C@@H](CC(N)=O)C(=O)N[C@@H](C)C(=O)N[C@@H](CC(C)C)C(=O)N[C@@H](CCCNC(=N)N)C(=O)N[C@@H](CCC(=O)O)C(=O)N[C@@H](CC(C)C)C(=O)N[C@@H](C)C(=O)N[C@@H](CC(=O)O)C(=O)N[C@@H](CCCCN)C(=O)O)C(C)C [peptide 13] (Ac-WMDDEFAAIMAVHGNALRELADK-OH; C-terminus assumed) | 27.7 ± 0.9 | 70.6 ± 0.2 | 70.8 | 70.4 | 70.6 | 0.0475 | 0.0451 | 0.0352 | 112 ± 38 ×10^-6 s-1 | 2.705 ± 1.041 ×10^6 M-1 s-1 | 0.042 ± 0.021 | 102 ± 36 | inhibited DocSTm at similar concentrations to peptide 1 | – |
| CC[C@H](C)[C@H](NC(=O)[C@H](C)NC(=O)[C@H](C)NC(=O)[C@H](Cc1ccccc1)NC(=O)[C@H](CCC(=O)O)NC(=O)[C@H](CC(=O)O)NC(=O)[C@H](CC(=O)O)NC(=O)[C@H](CCSC)NC(=O)[C@H](Cc1c[nH]c2ccccc12)NC(C)=O)C(=O)N[C@@H](CCSC)C(=O)N[C@@H](C)C(=O)N[C@H](C(=O)N[C@@H](Cc1c[nH]cn1)C(=O)NCC(=O)N[C@@H](CC(N)=O)C(=O)N[C@@H](CCC(=O)O)C(=O)N[C@@H](CC(C)C)C(=O)N[C@@H](CCCNC(=N)N)C(=O)N[C@@H](CCC(=O)O)C(=O)N[C@@H](CC(C)C)C(=O)N[C@@H](C)C(=O)N[C@@H](CC(=O)O)C(=O)N[C@@H](C)C(=O)O)C(C)C [peptide 19] (Ac-WMDDEFAAIMAVHGNELRELADA-OH; C-terminus assumed) | 25.2 ± 1.1 | 68.0 ± 0.6 | 68.8 | 67.6 | 67.7 | 0.101 | 0.0634 | 0.1 | 126 ± 11 ×10^-6 s-1 | 1.441 ± 0.462 ×10^6 M-1 s-1 | 0.087 ± 0.029 | 90 ± 6 | inhibited DocSTm at similar concentrations to peptide 1 | 0.103 |
| CC[C@H](C)[C@H](NC(=O)[C@H](C)NC(=O)[C@H](C)NC(=O)[C@H](Cc1ccccc1)NC(=O)[C@H](CCC(=O)O)NC(=O)[C@H](CC(=O)O)NC(=O)[C@H](CC(=O)O)NC(=O)[C@H](CCSC)NC(=O)[C@H](Cc1c[nH]c2ccccc12)NC(C)=O)C(=O)N[C@@H](CCSC)C(=O)N[C@@H](C)C(=O)N[C@H](C(=O)N[C@@H](Cc1c[nH]cn1)C(=O)NCC(=O)N[C@@H](CC(N)=O)C(=O)N[C@@H](CCC(=O)O)C(=O)N[C@@H](CC(C)C)C(=O)N[C@@H](CCCNC(=N)N)C(=O)N[C@@H](CCC(=O)O)C(=O)N[C@@H](CC(C)C)C(=O)N[C@@H](C)C(=O)O)C(C)C [peptide 20] (Ac-WMDDEFAAIMAVHGNELRELA-OH; N-terminus and C-terminus assumed) | 25.6 ± 0.9 | 68.5 ± 0.1 | 68.5 | 68.4 | 68.5 | 0.447 | 0.414 | 0.424 | 393 ± 18 ×10^-6 s-1 | 0.917 ± 0.023 ×10^6 M-1 s-1 | 0.428 ± 0.023 | 29.4 ± 1.2 | inhibition of DocSTm comparable to 1 | – |
| CC[C@H](C)[C@H](NC(=O)[C@H](C)NC(=O)[C@H](C)NC(=O)[C@H](Cc1ccccc1)NC(=O)[C@H](CCC(=O)O)NC(=O)[C@H](Cc1c[nH]c2ccccc12)NC(C)=O)C(=O)N[C@@H](CCSC)C(=O)N[C@@H](C)C(=O)N[C@H](C(=O)N[C@@H](Cc1c[nH]cn1)C(=O)NCC(=O)N[C@@H](CC(N)=O)C(=O)N[C@@H](CCC(=O)O)C(=O)N[C@@H](CC(C)C)C(=O)N[C@@H](CCCNC(=N)N)C(=O)N[C@@H](CCC(=O)O)C(=O)N[C@@H](CC(C)C)C(=O)N[C@@H](C)C(=O)N[C@@H](CC(=O)O)C(=O)N[C@@H](CCCCN)C(=O)O)C(C)C [peptide 21] (Ac-WEFAAIMAVHGNELRELADK-OH; N-terminus and C-terminus assumed) | 19.3 ± 0.9 | 62.2 ± 0.2 | 62.3 | 62.0 | 62.4 | 0.41 | 0.412 | 0.365 | 496 ± 58 ×10^-6 s-1 | 1.252 ± 0.080 ×10^6 M-1 s-1 | 0.396 ± 0.052 | 23.4 ± 3 | inhibition of DocSTm comparable to 1 | – |
| CC[C@H](C)[C@H](NC(=O)[C@H](C)NC(=O)[C@H](C)NC(=O)[C@H](Cc1ccccc1)NC(=O)[C@H](CCC(=O)O)NC(=O)[C@H](Cc1c[nH]c2ccccc12)NC(C)=O)C(=O)N[C@@H](CCSC)C(=O)N[C@@H](C)C(=O)N[C@H](C(=O)N[C@@H](Cc1c[nH]cn1)C(=O)NCC(=O)N[C@@H](CC(N)=O)C(=O)N[C@@H](CCC(=O)O)C(=O)N[C@@H](CC(C)C)C(=O)N[C@@H](CCCNC(=N)N)C(=O)N[C@@H](CCC(=O)O)C(=O)N[C@@H](CC(C)C)C(=O)N[C@@H](C)C(=O)O)C(C)C [peptide 22] (Ac-WEFAAIMAVHGNELRELA-OH; N-terminus and C-terminus assumed) | 16.3 ± 0.9 | 59.2 ± 0.3 | 58.89 | 59.16 | 59.42 | 0.342 | 0.336 | 0.365 | 503 ± 16 ×10^-6 s-1 | 1.449 ± 0.085 ×10^6 M-1 s-1 | – | 22.8 ± 0.6 | severe loss of inhibitory activity; also recorded: poor DocSTm inhibitors | – |
